Each structure is given as a SMILES string. The source made the active and inactive calls.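 Rule for the calls: active = phosphorylated EGFR protein level at least 30% below or above the solvent-only control; inactive = the rest.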

Epidermal growth factor receptor (Homo sapiens), sequence (P00533 whole entry, looked up): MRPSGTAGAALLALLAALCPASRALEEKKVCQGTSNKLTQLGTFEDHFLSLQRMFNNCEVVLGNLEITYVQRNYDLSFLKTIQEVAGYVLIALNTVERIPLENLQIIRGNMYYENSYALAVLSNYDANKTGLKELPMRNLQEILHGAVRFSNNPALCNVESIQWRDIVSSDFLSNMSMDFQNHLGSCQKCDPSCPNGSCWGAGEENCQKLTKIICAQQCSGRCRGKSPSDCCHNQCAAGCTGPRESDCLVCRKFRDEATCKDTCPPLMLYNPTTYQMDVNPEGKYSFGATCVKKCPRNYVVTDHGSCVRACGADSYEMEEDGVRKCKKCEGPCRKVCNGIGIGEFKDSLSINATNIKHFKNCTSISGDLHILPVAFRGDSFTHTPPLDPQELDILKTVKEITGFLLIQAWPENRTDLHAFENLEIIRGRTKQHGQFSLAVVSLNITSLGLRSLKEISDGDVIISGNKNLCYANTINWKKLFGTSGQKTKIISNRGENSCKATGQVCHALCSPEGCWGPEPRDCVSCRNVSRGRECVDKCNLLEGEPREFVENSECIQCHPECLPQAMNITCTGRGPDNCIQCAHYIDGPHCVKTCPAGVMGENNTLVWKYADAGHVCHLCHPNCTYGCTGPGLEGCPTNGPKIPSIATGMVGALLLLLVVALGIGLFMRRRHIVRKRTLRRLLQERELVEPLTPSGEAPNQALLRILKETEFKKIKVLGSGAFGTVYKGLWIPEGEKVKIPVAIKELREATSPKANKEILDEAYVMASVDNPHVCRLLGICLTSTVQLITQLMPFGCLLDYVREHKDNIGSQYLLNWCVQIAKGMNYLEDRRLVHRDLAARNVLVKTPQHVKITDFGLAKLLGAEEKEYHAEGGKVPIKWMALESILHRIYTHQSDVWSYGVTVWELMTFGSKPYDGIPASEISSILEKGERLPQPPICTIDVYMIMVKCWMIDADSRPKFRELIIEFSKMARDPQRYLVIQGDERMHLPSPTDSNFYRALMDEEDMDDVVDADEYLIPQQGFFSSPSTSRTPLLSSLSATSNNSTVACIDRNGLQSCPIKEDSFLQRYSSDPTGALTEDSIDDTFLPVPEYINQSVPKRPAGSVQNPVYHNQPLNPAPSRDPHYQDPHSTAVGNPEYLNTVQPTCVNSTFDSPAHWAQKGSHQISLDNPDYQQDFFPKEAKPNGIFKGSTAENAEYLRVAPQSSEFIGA

The experiment concerns the target Epidermal growth factor receptor (Homo sapiens) (UniProt P00533). Put plainly: change in phospho-EGFR levels, up or down, late-stage follow-up, counter-screen for KLF5 inhibitor project, DLD1 cells, chemiluminescent western blot, powder samples (AID 588613). Particulars: DLD-1 cells, 24 h, at 10 µM, active compounds read high. (The purpose of a counterscreen is to sort out artefacts and off-target activity.)
On to `CN(C(=O)CNC(=O)/C=C/c1cccc(Cl)c1)C1CCS(=O)(=O)CC1`, for which the inhibition was 46.8%.
As for `CN(C(=O)COC(=O)/C=C/c1cccc([N+](=O)[O-])c1)C1CCS(=O)(=O)C1` (stereo not drawn), the figure is 28.2% (inactive); as for `CN(C(=O)CNC(=O)/C=C/c1cccc(Cl)c1)C1CCS(=O)(=O)C1` (stereo not drawn), 60.7%.

The inhibition is the relative decrease from the control value, in per cent.

The values above are taken from PubChem BioAssay AID588613 (The Scripps Research Institute Molecular Screening Center, 2011).
